Several values for one entry are separate records, joined by “and”; a condition that tells them apart may be missing. Equal entries are not always repeated.
What was measured:
[1] = Dissolution test of poorly-soluble substances using distilled water; format: physicochemical
[2] = Dissolution test of poorly-soluble substances using 2nd fluid for disintegration test (pH 6.8) of the Japanese Pharmacopoeia; format: physicochemical
Description: From initiation of the test, the mixed solution was stirred with a stirrer having a length of 15 mm. The rotation number of the stirrer was 120 rpm, and all of the tests were conducted in a thermostat at 37±0.5° C. Two types of test solutions, namely, distilled water and 2nd fluid for disintegration test (pH 6.8) of the Japanese Pharmacopoeia were used. As such 2nd fluid for disintegration test of the Japanese Pharmacopoeia, a solution prepared by diluting the 10-fold concentration solution of Kanto Kagaku Co., Ltd. with distilled water was used.
A comparative test was carried out in the same manner as that described above with the exception that a poorly-soluble substance or the like was used in an amount equal to that of a substance with improved aqueous solubility, instead of the substance with improved aqueous solubility.
1 mL of the solution was sampled in an Eppendorf centrifuge tube, 1, 3, 10, 30, 60, 180 and 360 minutes after initiation of the test. The thus sampled solution was centrifuged at 12,000 rpm for 5 minutes. […] In the case of the comparative test, the poorly-soluble substance or the like, which had not been dissolved in the solution, was removed. An aliquot of this supernatant was immediately frozen. The frozen sample was freeze-dried, and it was then used as a sample in the measurement of the amount of the substance with improved aqueous solubility, which had been dissolved in the test solution. The dissolved poorly-soluble substance was measured mainly using a dual wavelength absorption photometer.

[3] = 2nd fluid for disintegration test, elution time 3 min
[4] = 2nd fluid for disintegration test, elution time 10 min
[5] = 2nd fluid for disintegration test, elution time 30 min
[6] = 2nd fluid for disintegration test, elution time 120 min
[7] = 2nd fluid for disintegration test, elution time 360 min
[8] = after dissolution test for 360 minutes, distilled water, 37±0.5° C.
[9] = after dissolution test for 360 minutes, Second disintegration test medium (pH 6.8), 37±0.5° C.

Compound	Dissolved amount ([1]; water, elution time 3 min)	Dissolved amount ([1]; water, elution time 10 min)	Dissolved amount ([1]; water, elution time 30 min)	Dissolved amount ([1]; water, elution time 120 min)	Dissolved amount ([1]; water, elution time 360 min)	Dissolved amount [2, 3]	Dissolved amount [2, 4]	Dissolved amount [2, 5]	Dissolved amount [2, 6]	Dissolved amount [2, 7]	Dissolved amount [1, 8]	Dissolved amount [2, 9]	other results
COc1ccc2[nH]c([S+]([O-])Cc3ncc(C)c(OC)c3C)nc2c1 (centres unmarked) [4-1, Omeprazole]											141.6 µg/mL	169.9 µg/mL	
Cn1c(=O)c2[nH]cnc2n(C)c1=O [Comparative Example 15, Theophylline]	7897.9 µg/mL	8554.7 µg/mL	8621.6 µg/mL		8691.5 µg/mL	8635.7 µg/mL	8596.0 µg/mL	8929.7 µg/mL		8906.2 µg/mL			Dissolved amount ([1]; water, elution time 1 min): 7082.2 µg/mL; Dissolved amount ([1]; water, elution time 60 min): 8652.4 µg/mL; Dissolved amount ([1]; water, elution time 180 min): 8672.3 µg/mL; Dissolved amount ([2]; 2nd fluid for disintegration test, elution time 1 min): 8133.8 µg/mL; Dissolved amount ([2]; 2nd fluid for disintegration test, elution time 60 min): 9096.5 µg/mL; Dissolved amount ([2]; 2nd fluid for disintegration test, elution time 180 min): 8906.5 µg/mL
Nc1nc(N)c2nc(-c3ccccc3)c(N)nc2n1 [6-1, Triamterene]											21.3 µg/mL	18.4 µg/mL	
CC(C)NCC(O)COc1cccc2[nH]ccc12 (centres unmarked) [compound 42, Pindolol]													Dissolved amount ([1]; Pindolol, water, elution time 3 min): 53.1 µg/mL; Dissolved amount ([1]; Pindolol, water, elution time 10 min): 71.1 µg/mL; Dissolved amount ([1]; Pindolol, water, elution time 30 min): 77.8 µg/mL; Dissolved amount ([1]; Pindolol, water, elution time 120 min): 93.5 µg/mL; Dissolved amount ([1]; Pindolol, water, elution time 360 min): 93.6 µg/mL; Dissolved amount ([2]; Pindolol, 2nd fluid for disintegration test, elution time 3 min): 1394.9 µg/mL; Dissolved amount ([2]; Pindolol, 2nd fluid for disintegration test, elution time 10 min): 2837.9 µg/mL; Dissolved amount ([2]; Pindolol, 2nd fluid for disintegration test, elution time 30 min): 3212.1 µg/mL; Dissolved amount ([2]; Pindolol, 2nd fluid for disintegration test, elution time 120 min): 3624.7 µg/mL
C[C@]12C=CC(=O)C=C1CC[C@@H]1[C@@H]2[C@@H](O)C[C@@]2(C)[C@H]1CC[C@]2(O)C(=O)CO [compound 41, Prednisolone]													Dissolved amount ([1]; Prednisolone, water, elution time 10 min): 336.3 µg/mL; Dissolved amount ([1]; Prednisolone, water, elution time 30 min): 315.8 µg/mL; Dissolved amount ([1]; Prednisolone, water, elution time 120 min): 268.2 µg/mL; Dissolved amount ([1]; Prednisolone, water, elution time 360 min): 266.3 µg/mL; Dissolved amount ([2]; Prednisolone, 2nd fluid for disintegration test, elution time 3 min): 369.1 µg/mL; Dissolved amount ([2]; Prednisolone, 2nd fluid for disintegration test, elution time 10 min): 382.4 µg/mL; Dissolved amount ([2]; Prednisolone, 2nd fluid for disintegration test, elution time 30 min): 310.8 µg/mL; Dissolved amount ([2]; Prednisolone, 2nd fluid for disintegration test, elution time 120 min): 265.5 µg/mL; Dissolved amount ([2]; Prednisolone, 2nd fluid for disintegration test, elution time 360 min): 257.9 µg/mL
CNC[C@H](O)c1ccc(O)c(O)c1 [compound 29, Epinephrine]													Dissolved amount [2]: 2001.7 µg/mL and 2061.7 µg/mL and 2129.3 µg/mL and 2102.5 µg/mL

Continued, in another order:

Dissolved amount ([1]; water, elution time 3 min)	Dissolved amount ([1]; water, elution time 10 min)	Dissolved amount ([1]; water, elution time 30 min)	Dissolved amount ([1]; water, elution time 120 min)	Dissolved amount ([1]; water, elution time 360 min)	Dissolved amount [2, 3]	Dissolved amount [2, 4]	Dissolved amount [2, 5]	Dissolved amount [2, 6]	Dissolved amount [2, 7]	Dissolved amount [1, 8]	Dissolved amount [2, 9]	Compound	other results
455.9 µg/mL	523.1 µg/mL	492.3 µg/mL	470.7 µg/mL	395.5 µg/mL	688.7 µg/mL	767.1 µg/mL	744.1 µg/mL	721.6 µg/mL	694.7 µg/mL			CCn1cc(C(=O)O)c(=O)c2cc(F)c(N3CCNCC3)cc21 [compound 27, Norfloxacin]	
2973.2 µg/mL	3880.0 µg/mL	4558.1 µg/mL	6034.2 µg/mL	6207.6 µg/mL	4613.3 µg/mL	5425.9 µg/mL	5825.0 µg/mL	7003.0 µg/mL	6133.3 µg/mL			CCS(=O)(=O)CCn1c([N+](=O)[O-])cnc1C [compound 25, Tinidazole]	
										6.4 µg/mL	8.0 µg/mL	COc1ccc(Cl)cc1C(=O)NCCc1ccc(S(=O)(=O)NC(=O)NC2CCCCC2)cc1 [compound 11, Glibenclamide]	
635.0 µg/mL	861.6 µg/mL	944.7 µg/mL	927.7 µg/mL	846.1 µg/mL		4984.2 µg/mL	5103.6 µg/mL	5904.1 µg/mL	6044.7 µg/mL			CC[C@H]1OC(=O)[C@H](C)[C@@H](O[C@H]2C[C@@](C)(OC)[C@@H](O)[C@H](C)O2)[C@H](C)[C@@H](O[C@@H]2O[C@H](C)C[C@H](N(C)C)[C@H]2O)[C@](C)(O)C[C@@H](C)C(=O)[C@H](C)[C@@H](O)[C@]1(C)O [compound 28, Erythromycin]	

Reference: patent publication US9023398B2, “Method for improving the aqueous solubility of poorly-soluble substances” (Kabushiki Kaisha Sangi, priority 2009, dated 2015)
